In patent US6114326A, “Use of cabergoline in the treatment of restless legs syndrome” (priority 1999, dated 2000):
“Also recorded” adds a separate entry of the source.

How the values were obtained:
D1 family of receptors = details: cited from earlier work
[1] = system: restless legs syndrome patients; test: Safety / adverse events, tolerability, augmentation in 12-week open label trial; type: in vivo
Text: Apart from levodopa, patients had to stop taking any medication known to have positive or negative effect on RLS two weeks before baseline (i.e., other dopamine agonists, benzodiazepines, opioids or other psychotropic agents). Patients who were on levodopa therapy were allowed to either stop levodopa prior to study entry or to continue, taper or discontinue levodopa during the study. To prevent well known peripheral dopaminergic side-effects such as nausea, vomiting, vertigo and arterial hypotension domperidone (not available in the United States) was comedicated initially and also tapered if possible. […] Neurological case history, examination, electrocardiogramm, chest x-ray and polysomnography were performed to ensure that selection criteria were fulfilled. A two-night PSG (including one night of adaptation) was performed to evaluate the diagnosis and inclusion/exclusion criteria regardless if patients were on or off levodopa. After a 12-week treatment period patients were studied again for one night in the sleep laboratory. Subjective ratings were obtained at baseline, week 4, week 8 and at the endpoint after 12 weeks. In addition patients were monitored by phone calls to note any adverse events and to determine whether to increase the dosage of the study drug, to decrease levodopa and to decrease domperidone. The time schedule of phone calls was variable and the frequency mostly dependent on the presence of simultaneous levodopa therapy. Dosing. […] Medication was taken 2 hours prior to bedtime. Initial therapy consisted of one 0.5 mg tablet. […] The increased dose could be decreased again if necessary. […] Subjects who were pretreated with levodopa were asked to decrease levodopa simultaneously if possible. Physician's rating. The physician rated the severity of illness at baseline (normal to extremely ill), the global improvement (general condition very much worse to very much better) and the side effects by use of the Clinical Global Impressions (CGI). Safety. Safety of Cabergoline was assessed to the type and frequency of adverse event, clinically significant changes in laboratory data or ECG and premature discontinuation of study participation. Adverse events were classified as serious versus nonserious and characterized by intensity, relationship to drug treatment, frequency, course and therapeutic intervention.

[2] = system: restless legs syndrome patients; test: Patients' subjective ratings (PGI, RLS severity, sleep satisfaction, sleep diary, quality of life) in 12-week open label trial; type: in vivo
Method: Efficacy was assessed by polysomnography and subjective ratings.
Following a 2-week baseline period, all patients were treated with cabergoline in an open trial for 12 weeks. Apart from levodopa, patients had to stop taking any medication known to have positive or negative effect on RLS two weeks before baseline (i.e., other dopamine agonists, benzodiazepines, opioids or other psychotropic agents). Patients who were on levodopa therapy were allowed to either stop levodopa prior to study entry or to continue, taper or discontinue levodopa during the study. To prevent well known peripheral dopaminergic side-effects such as nausea, vomiting, vertigo and arterial hypotension domperidone (not available in the United States) was comedicated initially and also tapered if possible. […] Neurological case history, examination, electrocardiogramm, chest x-ray and polysomnography were performed to ensure that selection criteria were fulfilled. A two-night PSG (including one night of adaptation) was performed to evaluate the diagnosis and inclusion/exclusion criteria regardless if patients were on or off levodopa. After a 12-week treatment period patients were studied again for one night in the sleep laboratory. Subjective ratings were obtained at baseline, week 4, week 8 and at the endpoint after 12 weeks. In addition patients were monitored by phone calls to note any adverse events and to determine whether to increase the dosage of the study drug, to decrease levodopa and to decrease domperidone. The time schedule of phone calls was variable and the frequency mostly dependent on the presence of simultaneous levodopa therapy.
Dosing. Study medication was available in tablets containing 0.5 mg, 1 mg or 2 mg Cabergoline (Cabaseril®, Pharmacia & Upjohn, Erlangen, Germany). Medication was taken 2 hours prior to bedtime. Initial therapy consisted of one 0.5 mg tablet. […] The increased dose could be decreased again if necessary. All patients were initially comedicated with domperidone 20 mg t.i.d. which could be tapered and stopped if possible. Subjects who were pretreated with levodopa were asked to decrease levodopa simultaneously if possible.
Subjective ratings. After each night of recording and at each visit at week 2 and 4, patients rated the severity of illness (normal to extremely ill), the therapeutic effects by rating their global improvements by use of the Patients Global Impressions (general condition very much worse to very much better), the severity of RLS symptoms during the time of falling asleep, during the night and during the day (scale: 0=not present to 10=very strong) and sleep satisfaction (very unsatisfied to very satisfied). In addition patients rated their quality of life, concerning well being and complaints during the previous week, using modified 50-mm Hamburger Visual Analogue Scale. Patients also filled in a sleep diary at each study visit rating the following symptoms: global assessment of sleep (very bad to very good night), sleep latency, sleep time, frequency of awakenings and urge to move the legs at time falling asleep, during the night and during the day (scale: 0=not present to 10=very strong).
Statistical analysis. Statistical evaluation was performed as intent-to-treat analysis using descriptive statistics.

[3] = of 9 patients, under cabergoline

In the case of `C=CCN1C[C@H](C(=O)N(CCCN(C)C)C(=O)NCC)C[C@@H]2c3cccc4[nH]cc(c34)C[C@H]21` [Cabergoline, 1((6-allylergolin-8β-yl) -carbony.)-1-(3-(dimethylamino)propyl)-3-ethylurea], the “D1 family activity (in words)” value (D1 family of receptors) is listed as “partial D1 activity; also recorded: partial DI family activity”, the “peripheral or other dopaminergic side effects” value ([1]; 4 mg cabergoline monotherapy) is listed as “did not see peripheral or other dopaminergic side effects” and the “total adverse events probably related to study drug” value ([1]; 9 patients, 12 weeks) is listed as 8. The augmentation under cabergoline ([1]; 12-week treatment) was “lower incidence; also recorded: did not observe augmentation”, the “duration and intensity of adverse events” value ([1]; all adverse events) was “temporary and considered to be mild to moderate” and the “reversal of levodopa-evoked augmentation of RLS symptoms” value ([1]; all patients) was “reversible”. For the same compound, the “discontinuation of levodopa during study” value ([1]; all patients initially on levodopa) was “discontinued levodopa treatment”, the “tolerability (in words)” value ([1]; domperidone stopped in all patients) was “excellent tolerability; also recorded: good tolerability” and the “changes in laboratory data or ECG” value ([1]; in vivo) was “No significant changes”. The “serious side effects / serious adverse events” value ([1]; in vivo) was “no serious side effects; also recorded: no serious adverse events”, the “withdrawal / discontinuation of patients” value ([1]; in vivo) was “no patient withdrew; also recorded: no patient discontinued” and the “patients with adverse events probably related to study drug” value ([1]; of 9 patients) was 5 patients. For the same compound, the diarrhea ([1]; probably related side effects) was 1, the dizziness ([1]; probably related side effects) was 2 and the headache ([1]; probably related side effects) was 2. For the same compound, the vertigo ([1]; probably related side effects) was 2, the nausea ([1]; probably related, led to temporary dose reduction) was 1 patient and the “subjective and objective sleep parameters (in words)” value ([2]; 12-week treatment, 1 to 4 mg (mean 2.1 mg)) was “marked improvement”. For the same compound, the “relief of RLS symptoms (in words)” value ([2]; all patients, 12 weeks, 1 to 4 mg single evening dose) was “significant relief or became free of RLS symptoms; also recorded: complete or significant relief of RLS symptoms”, the “times patients had to get up per night (sleep diary)” value ([2]; endpoint, baseline 2.1) was 0.6 times per night and the “duration of efficacy in RLS therapy” value ([2]; human, in vivo) was 24 h. The “markedly satisfied with sleep, number of patients” value ([2]; of 9 patients, endpoint) was 4, the “moderately satisfied with sleep, number of patients” value ([2]; of 9 patients, endpoint) was 1 and the “moderately unsatisfied with sleep, number of patients” value ([2]; of 9 patients, endpoint) was 2. The “severity of illness rated borderline (PGI), number of patients” value ([2]; of 9 patients, endpoint) was 2, the “severity of illness rated moderately ill (PGI), number of patients” value ([2]; of 9 patients, endpoint) was “two” and the “severity of illness rated normal (PGI), number of patients” value ([2]; of 9 patients, endpoint, at baseline extremely (2), very (4) or markedly (3) ill) was 5. For the same compound, the “very satisfied with sleep, number of patients” value ([2]; of 9 patients, endpoint, baseline very (1), markedly (6) or moderately (2) unsatisfied) was 2, the “general condition much better (PGI), number of patients” value [2, 3] was 3 and the “general condition very much better (PGI), number of patients” value [2, 3] was 6. For the same compound, the “RLS severity during the time of falling asleep” value ([2]; scale 0=not present to 10=very strong, last week, baseline 4.9±4.3) was 0.4±0.7, the “RLS severity during the day” value ([2]; scale 0=not present to 10=very strong, last week, baseline 5.1±3.4) was 0.8±1.7 and the “RLS severity during the night” value ([2]; scale 0=not present to 10=very strong, last week, baseline 6.7±2.7) was 1.6±2.6. For the same compound, the “global quality of the previous night (sleep diary)” value ([2]; scale zero (very bad) to 10 (very good), endpoint, baseline 3.1) was 6.9, the “efficacy in restless legs syndrome (in words)” value ([2]; single evening dose, incl. severe RLS and levodopa augmentation) was “effective and well tolerated; also recorded: very effective and well tolerated” and the “quality of life (Hamburger Visual Analogue Scale), in words” value ([2]; vs. baseline conditions) was “much better”.
